The test system of experiment [1] is HT22 cells. The experiment in a line: Ferroptosis Assay (RSL3-induced cell death, MTT). The format is cell-based, mouse. The settings on record: Mus musculus, HT-22; HT22 cells, 1 hr pretreatment, 50 nM RSL3, 16 hr, MTT; read-out: Observed EC50 RSL3. As for the experimental part: Ferroptosis Assay: HT22 cells were seeded at 3,000 cells/well in 96-well tissue culture plates in DMEM plus 10% FBS and 1% antibiotics. After 24 hr of plating, the cells were pretreated with different concentrations of test compounds or a vehicle control for 1 hr followed by coincubation with 50 nM RSL3 to induce the cell death cascade. After 16 hr of treatment, cell viability was measured by the MTT assay. Optical absorbance was measured at 570 nm on a SpectraMax M5 microplate reader. Samples were analyzed in eight to sixteen wells per independent experiment (n=8-16). Results were presented as the percentage of the controls with vehicle alone.

Experiment [2] relates to HT22 cells. Briefly: Oxytosis/ferroptosis assay with erastin (Table 2). It is filed as cell-based. The settings on record: Mus musculus, HT-22; erastin as inducer; method not given; read-out: Observed EC50 erastin.

What is called EC50 is the midpoint of the concentration-response curve. Consider `CCCCCc1cc(O)c([C@H]2CC(C)CC[C@@H]2C(C)C)c(O)c1` (stereo partly drawn) [H4CBD, 2-[(1S,6R)-6-Isopropyl-3-methylcyclohexyl]-5-pentylbenzene-1,3-diol], for which the results for the EC50 in the experiment on HT22 cells [1] and in the experiment on HT22 cells [2] were 400 nM and 0.3 µM, respectively.
For `CCCCCc1cc(O)c2c(c1)O[C@]1(C)CC[C@@H](C(C)C)[C@H]2C1` [iso-HHC, (2α,5α,6α)-(−)-3,4,5,6-tetrahydro-2-methyl-5-(1-methylethyl)-9-pentyl-2,6-methano-2H-1-benzoxocin-7-ol], in that order: 800 nM and 2.4 µM.
The matching figures for `CCCCCc1cc(O)c2c(c1)OC(C)(C)C1CCC(C)CC21` (stereo not drawn) [HHC, 6,6,9-trimethyl-3-pentyl-6a,7,8,9,10,10a-hexahydro-6H-benzo[c]chromen-1-ol]: 300 nM and 0.5 µM.
Consider `CCCCCc1cc(O)c2c(c1)OC(C)(C)c1ccc(CO)cc1-2` [11-OH-CBN, 9-(hydroxymethyl)-6,6-dimethyl-3-pentyl-6H-benzo[c]chromen-1-ol], for which the EC50 with HT22 cells [1] is 1300 nM; in the experiment with HT22 cells [2], 4.7 µM.
The matching figures for `C=C(C)C1CCC(C)=CC1c1c(OC(C)=O)cc(CCCCC)cc1OC(C)=O` (stereo not drawn) [CBD-(OAc)2, 5′-methyl-4-pentyl-2′-(prop-1-en-2-yl)-1′,2′,3′,4′-tetrahydro-[1,1′-biphenyl]-2,6-diyl diacetate]: 2400 nM and 9.1 µM.
The matching figures for `CCCc1cc(O)cc2c1-c1cc(C)ccc1C(C)(C)O2` [Abn-CBNV, 6,6,9-trimethyl-1-propyl-6H-benzo[c]chromen-3-ol]: 4900 nM and 9.5 µM.
For `CCCCCCc1cc(O)c2c(c1)OC(C)(C)c1ccc(C)cc1-2` [CBN-C6, 3-hexyl-6,6,9-trimethyl-6H-benzo[c]chromen-1-ol], in that order: 900 nM and 2 µM.
Turning to `CCCCCc1cc(O)c2c(c1)O[C@H]1[C@@H]2[C@H](C(C)C)CC[C@]1(C)O` [H2CBE, (5aS,6S,9S,9aR)-9-isopropyl-6-methyl-3-pentyl-5a,6,7,8,9,9a-hexahydrodi-benzo[b,d]furan-1,6-diol], the EC50 turned out to be 3500 nM with HT22 cells [1] and 9.2 µM in the experiment with HT22 cells [2].
The matching figures for `CCCCCCCc1cc(O)c2c(c1)OC(C)(C)c1ccc(C)cc1-2` [CBN-C7, 3-heptyl-6,6,9-trimethyl-6H-benzo[c]chromen-1-ol]: 2000 nM and 3.8 µM.
The matching figures for `CCCCCc1cc(O)c2c(c1)OC(C)(C)C1CCC(C)=CC21` (stereo not drawn) [D9-THC, 6,6,9-trimethyl-3-pentyl-6a,7,8,10a-tetrahydro-6H-benzo[c]chromen-1-ol]: 4100 nM and 9.4 µM.
For `C=C(C)[C@@H]1CCC(C)=C[C@H]1c1c(O)cc(O)cc1CCCCC` [Abn-CBD, 4-[(1R,6R)-3-methyl-6-(1-methylethenyl)-2-cyclohexen-1-yl]-5-pentyl-1,3-benzenediol], in that order: 3900 nM and 8 µM.
For the compound `CCCCCc1cc(OC)c2c(c1)OC(C)(C)c1ccc(C)cc1-2` [CBN-OMe, 1-methoxy-6,6,9-trimethyl-3-pentyl-benzo[c]chromene], the EC50 in the experiment on HT22 cells [1] is more than 10000 nM; with HT22 cells [2], more than 10 µM.
For `CCCCCc1cc(O)c(-c2cccc(C)c2)c(O)c1` [4-DI-CBND, 3′-methyl-4-pentyl-[1,1′-biphenyl]-2,6-diol], in that order: 4200 nM and 9.6 µM.
For `CCCc1cc(O)c2c(c1)OC(C)(C)C1CCC(C)=CC21` (stereo not drawn) [THCV, 6,6,9-Trimethyl-3-propyl-6a,7,8,10a-tetrahydro-6H-benzo[c]chromen-1-ol], in that order: 780 nM and 3.4 µM.
Turning to `CCc1cc(O)c2c(c1)OC(C)(C)c1ccc(C)cc1-2` [CBN-C2, 3-ethyl-6,6,9-trimethyl-6H-benzo[c]chromen-1-ol], the 50% effective concentration (EC50) in the experiment with HT22 cells [1] turned out to be 1800 nM; in the experiment on HT22 cells [2], 5.6 µM.
For `CCCCCc1cc(O)c2c(c1)OC(C)(C)C1CCC(C)C=C21` (stereo not drawn) [D10-THC, 6,6,9-trimethyl-3-pentyl-6a,7,8,9-tetrahydro-6H-benzo[c]chromen-1-ol], the figures for the EC50 with HT22 cells [1] and in the experiment on HT22 cells [2] were 130 nM and 0.62 µM, respectively.
The matching figures for `CCCCCc1cc2c(c(O)c1C(=O)O)[C@@H]1C=C(C)CC[C@H]1C(C)(C)O2` [THCA, (6aR,10aR)-1-Hydroxy-6,6,9-trimethyl-3-pentyl-6a,7,8,10a-tetrahydro-6H-benzo[c]chromene-2-carboxylic acid]: more than 10000 nM and more than 10 µM.
For `CCCCCc1cc(O)c(-c2cc(C)ccc2C(C)C)c(O)c1` [H2CBND, 2,6-dihydroxy-4-pentyl-2′-isopropyl-5′-methyl-1,1′-biphenyl], in that order: 2400 nM and 5.7 µM.
For `CCCCCc1cc(O)c2c(c1)O[C@@H]1CCC(C)=C[C@]21C(C)C` [D8(9)-iso-THCBF, (5aR,9aR)-9a-isopropyl-8-methyl-3-pentyl-5a,6,7,9a-tetra-hydrodibenzo[b,d]furan-1-ol], in that order: 1400 nM and 5.1 µM.
As for `CCCCCc1cc(O)c([C@H]2C=C(C)CC[C@@H]2C(C)C)c(O)c1` [H2CBD, 2-[(1R,6R)-6-Isopropyl-3-methylcyclohex-2-en-1-yl]-5-pentylbenzene-1,3-diol], the EC50 in the experiment on HT22 cells [1] amounted to 1100 nM; in the experiment on HT22 cells [2] it was 4.8 µM.
In the case of `C=C(C)[C@@H]1CC[C@](C)(O)[C@H]2Oc3cc(CCCCC)cc(O)c3[C@@H]12` [CBE, (5aS,6S,9R,9aR)-6-methyl-3-pentyl-9-prop-1-en-2-yl-7,8,9,9a-tetrahydro-5aH-dibenzofuran-1,6-diol], the EC50 is more than 10000 nM in the experiment on HT22 cells [1] and more than 10 µM in the experiment on HT22 cells [2].
The matching figures for `CCCCCc1cc2c3c(c1)OC(C)(C)C1CCC(C)(CC31)O2` (stereo not drawn) [CBT, 1,5,5-trimethyl-9-pentyl-6,15-dioxa-tetracyclo[9.3.1.0^4,13.0^7,12]-pentadeca-7(12),8,10-triene]: more than 10000 nM and more than 10 µM.
The matching figures for `CCCCCc1cc(OC(C)=O)c2c(c1)OC(C)(C)c1ccc(C)cc1-2` [CBN-OAc, 1-acetoxy-6,6,9-trimethyl-3-pentyl-benzo[c]chromene]: 1300 nM and 1.9 µM.
The matching figures for `CCCCCc1cc(O)c2c(c1)OC1(C)CCC3C1C2C3(C)C` (stereo not drawn) [CBL, (1aR-(1a alpha,3a alpha,8b alpha,8calpha))-1a,2,3,3a,8b,8c-hexahydro-1,1,3a-trimethyl-6-pentyl-1H-4-oxabenzo(f)-cyclobut(cd)inden-8-ol]: 770 nM and 3.3 µM.
In the case of `CCCCc1cc(O)c2c(c1)OC(C)(C)c1ccc(C)cc1-2` [CBN-C4, 3-butyl-6,6,9-trimethyl-6H-benzo[c]chromen-1-ol], the values for the EC50 in the experiment with HT22 cells [1] and in the experiment with HT22 cells [2] were 1100 nM and 2.1 µM, respectively.
For `CCCCCc1cc(O)c(C/C=C(\C)CCC=C(C)C)c(O)c1` [CBG, 2-[(2E)-3,7-Dimethylocta-2,6-dienyl]-5-pentyl-benzene-1,3-diol], in that order: 3200 nM and 10.8 µM.
Regarding `C=C(C)C1CCC2(C)CC1c1c(O)cc(CCCCC)cc1O2` (stereo not drawn) [D8(9)-iso-THC, 3,4,5,6-tetrahydro-2-methyl-5-(1-methylethenyl)-9-pentyl-2,6-methano-2H-1-benzoxocin-7-ol], the EC50 with HT22 cells [1] was 330 nM; in the experiment with HT22 cells [2], 2.1 µM.
The matching figures for `CCCCCc1cc(O)c(CCC(C)CCCC(C)C)c(O)c1` (stereo not drawn) [H4CBG, 2-(3,7-dimethyloctyl)-5-pentylbenzene-1,3-diol]: 400 nM and 0.7 µM.
The matching figures for `CCCCCc1cc(O)c2c(c1)OC(C)(C)C1=C2CC(C)CC1` (stereo not drawn) [D6a,10a-THC, 6,6,9-trimethyl-3-pentyl-7,8,9,10-tetrahydro-6H-benzo[c]chromen-1-ol]: 700 nM and 1.8 µM.
For `CCCCCc1cc(O)c(C/C=C(\C)CCC=C(C)C)c(O)c1C(=O)O` [CBGA, 3-[(2E)-3,7-Dimethylocta-2,6-dien-1-yl]-2,4-dihydroxy-6-pentylbenzoic acid], in that order: more than 10000 nM and more than 10 µM.
Turning to `C=C(C)[C@@H]1CCC(C)=C[C@H]1c1c(O)cc(CCC)cc1O` [CBDV, 2-[(1R,6R)-6-Isopropenyl-3-methylcyclohex-2-en-1-yl]-5-propylbenzene-1,3-diol], the EC50 in the experiment on HT22 cells [1] amounted to 1000 nM; with HT22 cells [2], 3.8 µM.
For `CCCCCc1cc(O)c2c(c1)OC(C)(CCC=C(C)C)C=C2` (stereo not drawn) [CBC, 2-Methyl-2-(4-methylpent-3-enyl)-7-pentyl-5-chromenol], in that order: 1100 nM and 8.7 µM.
As for `CCCCCc1cc2c(c(O)c1C(=O)O)-c1cc(C)ccc1C(C)(C)O2` [CBNA, 1-hydroxy-6,6,9-trimethyl-3-pentyl-benzo[c]chromene-2-carboxylic acid], the EC50 was more than 10000 nM with HT22 cells [1] and more than 10 µM with HT22 cells [2].
For `C=C(C)[C@@H]1CCC(C)=C[C@H]1c1c(O)cc(CCCCC)cc1O` [CBD, 2-[(1R,6R)-6-Isopropenyl-3-methylcyclohex-2-en-1-yl]-5-pentylbenzene-1,3-diol], in that order: 860 nM and 8.8 µM.
For `Cc1cc(O)c2c(c1)OC(C)(C)c1ccc(C)cc1-2` [CBN-C1, 3-methyl-6,6,9-trimethyl-6H-benzo[c]chromen-1-ol], in that order: 2200 nM and 6.9 µM.
For `CCCCCc1cc(O)c2c(c1)OC1(C)CCC(=C(C)C)C2C1` (stereo not drawn) [D4(8)-iso-THC, 3,4,5,6-tetrahydro-2-methyl-5-(1-methylethylidene)-9-pentyl-2,6-methano-2H-1-benzoxocin-7-ol], in that order: 340 nM and 1.5 µM.
